Experimental data: PubChem BioAssay AID248 (DTP/NCI, 2004)
Toxic doses and inconclusive results are not listed. Cut-off read from the data, not from the text of the source: active = T/C of 150% or more; inactive = T/C below 125%.

System: L1210 leukemia ip in BDF1 mice, survival T/C
Assay: NCI In Vivo Anticancer Drug Screen. Data for tumor model L1210 Leukemia (intraperitoneal) in B6D2F1 (BDF1) mice
Details: endpoint: mean survival time, higher = longer survival
Procedure, shortened: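 Mice bearing the transplanted tumor received compound or vehicle. Survival of the treated group was divided by that of the vehicle-treated control group to give the ratio.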

[1] = dose: 100.0 mg/kg/injection, schedule: Q01DX Z (ip), vehicle: methylcellulose (MC)
[2] = dose: 200.0 mg/kg/injection, schedule: Q01DX Z (ip), vehicle: methylcellulose (MC)
[3] = dose: 100.0 mg/kg/injection, schedule: Q01DX001 (ip), vehicle: saline
[4] = dose: 200.0 mg/kg/injection, schedule: Q01DX001 (ip), vehicle: saline
[5] = dose: 400.0 mg/kg/injection, schedule: Q01DX001 (ip), vehicle: saline
[6] = dose: 12.5 mg/kg/injection, schedule: Q04DX003 (ip), vehicle: Klucel (hydroxypropylcellulose) (HPC)
[7] = dose: 25.0 mg/kg/injection, schedule: Q04DX003 (ip), vehicle: Klucel (hydroxypropylcellulose) (HPC)
[8] = dose: 50.0 mg/kg/injection, schedule: Q04DX003 (ip), vehicle: Klucel (hydroxypropylcellulose) (HPC)
[9] = dose: 100.0 mg/kg/injection, schedule: Q04DX003 (ip), vehicle: Klucel (hydroxypropylcellulose) (HPC)
[10] = dose: 100.0 mg/kg/injection, schedule: Q01DX009 (ip), vehicle: Klucel (hydroxypropylcellulose) (HPC)
[11] = dose: 200.0 mg/kg/injection, schedule: Q01DX009 (ip), vehicle: Klucel (hydroxypropylcellulose) (HPC)
[12] = dose: 200.0 mg/kg/injection, schedule: Q04DX003 (ip), vehicle: Klucel (hydroxypropylcellulose) (HPC)
[13] = dose: 400.0 mg/kg/injection, schedule: Q04DX003 (ip), vehicle: Klucel (hydroxypropylcellulose) (HPC)
[14] = dose: 100.0 mg/kg/injection, schedule: Q01DX001 (ip), vehicle: other
[15] = dose: 200.0 mg/kg/injection, schedule: Q01DX001 (ip), vehicle: other
[16] = dose: 100.0 mg/kg/injection, schedule: Q04DX003 (ip), vehicle: saline with Tween-80
[17] = dose: 200.0 mg/kg/injection, schedule: Q04DX003 (ip), vehicle: saline with Tween-80
[18] = dose: 400.0 mg/kg/injection, schedule: Q04DX003 (ip), vehicle: saline with Tween-80
[19] = dose: 50.0 mg/kg/injection, schedule: Q01DX009 (ip), vehicle: Klucel (hydroxypropylcellulose) (HPC)
[20] = dose: 100.0 mg/kg/injection, schedule: Q01DX001 (ip), vehicle: saline with Tween-80
[21] = dose: 200.0 mg/kg/injection, schedule: Q01DX001 (ip), vehicle: saline with Tween-80

Measured: T/C

CSc1nc(Cl)c(Br)c(N2CC2)n1
inactive: [1] 110 % of control | [2] 108 % of control

CCOC(=O)n1cnc2nc(N)nc(Cl)c21
inactive: dose: 50.0 mg/kg/injection, schedule: Q01DX001 (ip), vehicle: saline 103 % of control | [3] 105 % of control | [4] 100 % of control | [5] 122 % of control

CC1=C(N2CC2)C(=O)c2ccccc2C1=O
inactive: [6] 98 % of control | [7] 102 % of control | [8] 102 % of control | dose: 100.0 mg/kg/injection, schedule: Q01DX001 (ip), vehicle: Klucel (hydroxypropylcellulose) (HPC) 102 % of control | [9] 102 % of control

COc1ccc(N=C(N)NC#N)cc1
inactive: [10] 100 % of control | [9] 93 % of control | [11] 97 % of control | [12] 92 % of control | [13] 97 % of control

CCOC(=O)C1C2=C(C(N)=O)C(=O)C(C(=O)O2)C1c1ccc(O)cc1 (centres undefined)
inactive: [14] 91 % of control | [15] 97 % of control

N#Cc1ccc(Br)cc1[N+](=O)[O-]
inactive: dose: 6.25 mg/kg/injection, schedule: Q01DX009 (ip), vehicle: Klucel (hydroxypropylcellulose) (HPC) 103 % of control | [9] 89 % of control | [12] 86 % of control

NOCc1ccsn1
inactive: [14] 105 % of control | dose: 100.0 mg/kg/injection, schedule: Q01DX009 (ip), vehicle: sodium bicarbonate 96 % of control | dose: 100.0 mg/kg/injection, schedule: Q04DX003 (ip), vehicle: other 102 % of control | [15] 111 % of control | dose: 200.0 mg/kg/injection, schedule: Q01DX009 (ip), vehicle: sodium bicarbonate 98 % of control | dose: 200.0 mg/kg/injection, schedule: Q04DX003 (ip), vehicle: other 95 % of control | dose: 400.0 mg/kg/injection, schedule: Q01DX001 (ip), vehicle: other 94 % of control

C[N+](C)(C)CCC[N+]1(C)Cc2ccccc2C1
inactive: dose: 55.0 mg/kg/injection, schedule: Q01DX Z (ip), vehicle: saline 91 % of control | dose: 83.0 mg/kg/injection, schedule: Q01DX Z (ip), vehicle: saline 97 % of control | dose: 125.0 mg/kg/injection, schedule: Q01DX Z (ip), vehicle: saline 96 % of control

CC(=O)OC1CCC(=O)C2C(C(=O)O)CCCC12 (centres undefined)
inactive: [3] 97 % of control | [4] 103 % of control | [5] 91 % of control

CC(C)CCCC(C)C1CCC2C3CCC4=CC5(CCC4(C)C3CCC12C)SCCS5 (centres undefined)
inactive: dose: 50.0 mg/kg/injection, schedule: Q01DX009 (ip), vehicle: saline with Tween-80 98 % of control | dose: 100.0 mg/kg/injection, schedule: Q01DX009 (ip), vehicle: saline with Tween-80 101 % of control | dose: 200.0 mg/kg/injection, schedule: Q01DX009 (ip), vehicle: saline with Tween-80 95 % of control

CSc1nc(O)c(-c2ccccc2)c(=O)[nH]1
inactive: [1] 103 % of control | [2] 101 % of control

CN(C)C(=N)C(=N)N(C)C
inactive: dose: 100.0 mg/kg/injection, schedule: Q01DX009 (ip), vehicle: saline 96 % of control | dose: 100.0 mg/kg/injection, schedule: Q04DX003 (ip), vehicle: saline 98 % of control | dose: 200.0 mg/kg/injection, schedule: Q01DX009 (ip), vehicle: saline 88 % of control | dose: 200.0 mg/kg/injection, schedule: Q04DX003 (ip), vehicle: saline 100 % of control | dose: 400.0 mg/kg/injection, schedule: Q01DX009 (ip), vehicle: saline 94 % of control | dose: 400.0 mg/kg/injection, schedule: Q04DX003 (ip), vehicle: saline 93 % of control

O=C(CBr)c1cc(-c2cccc(I)c2)nc2c(Cl)cc(Cl)cc12
inactive: [16] 101 % of control | [17] 93 % of control | [18] 93 % of control

Nc1nc(N2CCCCC2)c2nc(Cl)n(C3OC(CO)C(O)C3O)c2n1 (centres undefined)
inactive: [3] 96 % of control | [4] 94 % of control | [5] 97 % of control

CCOc1ccc(/C=C/[N+](=O)[O-])cc1
inactive: dose: 12.5 mg/kg/injection, schedule: Q01DX009 (ip), vehicle: Klucel (hydroxypropylcellulose) (HPC) 96 % of control | [6] 95 % of control | dose: 25.0 mg/kg/injection, schedule: Q01DX009 (ip), vehicle: Klucel (hydroxypropylcellulose) (HPC) 97 % of control | [7] 114 % of control | [19] 105 % of control | [8] 101 % of control | [9] 94 % of control | [12] 95 % of control

CC1CC(CN2c3ccccc3Sc3ccccc32)C(C)N1C (centres undefined)
inactive: dose: 12.5 mg/kg/injection, schedule: Q04DX003 (ip), vehicle: acetone 101 % of control | dose: 25.0 mg/kg/injection, schedule: Q04DX003 (ip), vehicle: acetone 120 % of control

O=C1C(=O)c2ccccc2C(O)=C1CN1CCC1
inactive: [20] 95 % of control | [21] 95 % of control

CC(=O)OC1=C(Cl)C(=O)C(OC(C)=O)=C(Cl)C1=O
inactive: [8] 106 % of control | [9] 100 % of control | [12] 100 % of control | [13] 92 % of control

CC(Cl)CN(Cc1cc(CN(CC(C)Cl)CC(C)Cl)c(O)cc1O)CC(C)Cl (centres undefined)
inactive: dose: 12.5 mg/kg/injection, schedule: Q01DX001 (sc), vehicle: olive oil, sesame oil, peanut oil 102 % of control | dose: 12.5 mg/kg/injection, schedule: Q01DX015 (sc), vehicle: olive oil, sesame oil, peanut oil 95 % of control | dose: 25.0 mg/kg/injection, schedule: Q01DX001 (sc), vehicle: olive oil, sesame oil, peanut oil 100 % of control | dose: 25.0 mg/kg/injection, schedule: Q01DX015 (sc), vehicle: olive oil, sesame oil, peanut oil 110 % of control | dose: 50.0 mg/kg/injection, schedule: Q01DX001 (ip), vehicle: carboxymethylcellulose (CMC) 93 % of control | dose: 50.0 mg/kg/injection, schedule: Q01DX001 (sc), vehicle: olive oil, sesame oil, peanut oil 96 % of control | dose: 50.0 mg/kg/injection, schedule: Q01DX015 (sc), vehicle: olive oil, sesame oil, peanut oil 93 % of control | dose: 100.0 mg/kg/injection, schedule: Q01DX001 (ip), vehicle: carboxymethylcellulose (CMC) 110 % of control | dose: 100.0 mg/kg/injection, schedule: Q01DX001 (sc), vehicle: olive oil, sesame oil, peanut oil 102 % of control | dose: 100.0 mg/kg/injection, schedule: Q01DX015 (sc), vehicle: olive oil, sesame oil, peanut oil 95 % of control | dose: 200.0 mg/kg/injection, schedule: Q01DX001 (ip), vehicle: carboxymethylcellulose (CMC) 110 % of control | dose: 200.0 mg/kg/injection, schedule: Q01DX015 (sc), vehicle: olive oil, sesame oil, peanut oil 112 % of control | dose: 400.0 mg/kg/injection, schedule: Q01DX001 (ip), vehicle: carboxymethylcellulose (CMC) 104 % of control | dose: 400.0 mg/kg/injection, schedule: Q01DX015 (sc), vehicle: olive oil, sesame oil, peanut oil 104 % of control | dose: 600.0 mg/kg/injection, schedule: Q01DX015 (sc), vehicle: olive oil, sesame oil, peanut oil 102 % of control

CC(C)COC(=O)CCCCC(=O)OCC(C)C
inactive: [16] 113 % of control | [17] 107 % of control | [18] 110 % of control

CC1(C)N=C(N)N=C(N)N1c1cccc(/C=C/c2cccc([N+](=O)[O-])c2)c1
inactive: [19] 102 % of control | [10] 90 % of control | [11] 106 % of control

O=C(O)CCCC1OCCO1
inactive: [20] 98 % of control | [21] 95 % of control | dose: 400.0 mg/kg/injection, schedule: Q01DX001 (ip), vehicle: saline with Tween-80 101 % of control

O=C1NC2C3CCC(C3)C12 (centres undefined)
inactive: dose: 10.0 mg/kg/injection, schedule: Q04DX002 (ip), vehicle: saline 90 % of control | dose: 20.0 mg/kg/injection, schedule: Q04DX002 (ip), vehicle: saline 107 % of control | dose: 40.0 mg/kg/injection, schedule: Q04DX002 (ip), vehicle: saline 93 % of control
